Reference: paper PMC4596527 (Bioorganic & medicinal chemistry, 2010)
Marks after values point to notes of the source that are not given here.

Legend:
myocite = settings: exposure to hypoxantine and xantine oxidase; cited from earlier work
[1] = tested on: Langendorff-perfused heart; settings: attributed to activation of Akt and ERK1/2 pathways; cited from earlier work
[2] = tested on: Chinese hamster ovary (CHO) cells; experiment: MTT cell viability, protection against H2O2-mediated cytotoxicity in CHO cells; settings: for Cytotoxicity CHO (%): 50 μM compound for 2 h, then 1mM H2O2 for 1 h, MTT
reperfused myocardium = settings: in vivo I/R injury; cited from earlier work
[3] = tested on: human aortic vascular smooth muscle cells (HSMCs); experiment: MTT cell viability, protection against H2O2-mediated cytotoxicity in HSMC cells; settings: 50 μM compound for 2 h, then 1mM H2O2 for 1 h
[4] = Superoxide radical scavenging by EPR spin trapping; settings: PBS pH 7.4
[5] = 1-mM compound in presence of 1-mM DEPMPO
[6] = 100-μM compound in presence of 1-mM DEPMPO

COc1ccc(CCN(C)CCCC(C#N)(c2ccc(OC)c(OC)c2)C(C)C)cc1OC (stereo not shown) [Compound 1, verapamil]
myocite viability (myocite): preserved
oxidative damage during ischemia and reperfusion [1]: decreased oxidative damage

COc1ccc(CCN(C)CCCC(CNC(=O)C2=CC(C)(C)N(O)C2(C)C)(c2ccc(OC)c(OC)c2)C(C)C)cc1OC.Cl (stereo not shown) [Compound 12B]
protection of CHO cells against H2O2 compared with verapamil (in words) [2]: good protection

COc1ccc(CCN(C)CCCC(CNC(=O)C2=CC(C)(C)N(O)C(C)(C)C2)(c2ccc(OC)c(OC)c2)C(C)C)cc1OC.Cl (stereo not shown) [Compound 16B]
protection of CHO cells against H2O2 compared with verapamil (in words) [2]: good protection
Akt and Bcl-2 levels in reperfused myocardium (reperfused myocardium): enhanced
nitric oxide generation in reperfused myocardium (reperfused myocardium): increased
superoxide production in reperfused myocardium (reperfused myocardium): markedly attenuated

COc1ccc(CCN(C)CCCC(CNC(=O)C2CC(C)(C)N(O)C(C)(C)C2)(c2ccc(OC)c(OC)c2)C(C)C)cc1OC.Cl (stereo not shown) [Compound 17B]
protection of CHO cells against H2O2 compared with verapamil (in words) [2]: good protection

COc1ccc(CCN(CCCC(C#N)(c2ccc(OC)c(OC)c2)C(C)C)CC2=CC(C)(C)NC2(C)C)cc1OC (stereo not shown) [Compound 23A, 2-(3,4-Dimethoxyphenyl)-5-[[2-(3,4-dimethoxyphenyl)ethyl]-(2,2,5,5-tetramethyl-2,5-dihydro-1H-pyrrol-3-ylmethyl)-amino]-2-isopropyl-pentanenitrile]
Cytotoxicity HSMC (%) [3]: 64.8 ± 7.1%
Superoxide Scavenging (%) [4, 5]: 70.6 ± 3.3 ^a %
Cytotoxicity CHO (%) [2]: 74.0 ± 3.4%

COc1ccc(CCN(CCCC(C#N)(c2ccc(OC)c(OC)c2)C(C)C)CC2=CC(C)(C)N(O)C2(C)C)cc1OC.Cl (stereo not shown) [Compound 23B, 2-(3,4-Dimethoxyphenyl)-5-[[2-(3,4-dimethoxyphenyl)ethyl]-(1-hydroxy-2,2,5,5-tetramethyl-2,5-dihydro-1H-pyrrol-3-ylmethyl)-amino]-2-isopropyl-pentanenitrile HCl Salt]
Cytotoxicity HSMC (%) [3]: 58.6 ± 4.8%
Superoxide Scavenging (%) [4, 5]: 100%
Superoxide Scavenging (%) [4, 6]: 78.1±2.6%
Cytotoxicity CHO (%) [2]: 66.7 ± 3.0%

COc1ccc(CCN(CCCC(C#N)(c2ccc(OC)c(OC)c2)C(C)C)CC2=CC(C)(C)NC(C)(C)C2)cc1OC (stereo not shown) [Compound 24A, 2-(3,4-Dimethoxyphenyl)-5-[[2-(3,4-dimethoxyphenyl)ethyl]-(2,2,6,6-tetramethyl-1,2,3,6-tetrahydropyridin-4-ylmethyl)amino]-2-isopropyl-pentanenitrile]
Cytotoxicity HSMC (%) [3]: 91.1 ± 0.5%
Superoxide Scavenging (%) [4, 5]: 68.2 ± 7.6 ^a %
Cytotoxicity CHO (%) [2]: 95.3 ± 0.5%

COc1ccc(CCN(CCCC(C#N)(c2ccc(OC)c(OC)c2)C(C)C)CC2=CC(C)(C)N(O)C(C)(C)C2)cc1OC.Cl (stereo not shown) [Compound 24B, 2-(3,4-Dimethoxyphenyl)-5-[[2-(3,4-dimethoxyphenyl)ethyl]-(1-hydroxy-2,2,6,6-tetramethyl-1,2,3,6-tetrahydropyridin-4-ylmethyl)amino]-2-isopropyl-pentanenitrile HCl Salt]
Cytotoxicity HSMC (%) [3]: 57.2 ± 5.4%
Superoxide Scavenging (%) [4, 5]: 100%
Superoxide Scavenging (%) [4, 6]: 82.5±2.7%
Cytotoxicity CHO (%) [2]: 64.8 ± 5.6%

[4-Cyano-4-(3,4-dimethoxyphenyl)-5-methylhexyl]-[2-(3,4-dimethoxyphenyl)ethyl]-(1-oxyl-2,2,5,5-tetramethyl-2,5-dihydro-1H-pyrrol-3-ylmethyl)methylammonium Iodide Salt Radical [Compound 25]
Superoxide Scavenging (%) [4, 5]: 73.8 ± 3.0 ^a %
protection of CHO cells against H2O2 compared with verapamil (in words) [2]: good protection

[4-Cyano-4-(3,4-dimethoxyphenyl)-5-methylhexyl]-[2-(3,4-dimethoxyphenyl)ethyl]-(1-oxyl-2,2,6,6-tetramethyl-1,2,3,6-tetrahydropyridin-4-ylmethyl)methylammonium Iodide Salt Radical [Compound 26]
Superoxide Scavenging (%) [4, 5]: 48.1 ± 2.7 ^a %
